Experiments:
Format in all cases: cell-based, human
[1] = test system: NCI-H460/R cells; experiment: Cytotoxicity by immunofluorescence cell scoring (cell counts), multidrug-resistant NSCLC cell line; details: 24 h treatment
Description: Human non-small cell lung carcinoma cells (NCI-H460) were purchased from the American Type Culture Collection (Rockville, MD, USA), and normal embryonic lung fibroblasts (MRC-5) were purchased from the European Collection of Authenticated Cell Cultures (Salisbury, UK). Multidrug-resistant NCI-H460/R cells overexpressing ABCB1 were selected from the NCI-H460 cells after selective pressure with doxorubicin [21]. All the cell lines were maintained in MEM medium (Sigma-Aldrich Chemie GmbH, Taufkirchen, Germany) supplemented with 10% FBS, 2 mM L-glutamine, and antibiotic-antimycotic solution. All the cell lines were maintained at 37 °C in a humidified atmosphere with 5% CO2.
(§1) Vinorelbine and pemetrexed were purchased from Selleckchem (Houston, TX, USA). Carboplatin, cisplatin, docetaxel, etoposide, gemcitabine, gefitinib, and paclitaxel were purchased from Sigma-Aldrich Chemie GmbH (Taufkirchen, Germany). The cisplatin, carboplatin, and gemcitabine were dissolved in sterile water, while the etoposide, docetaxel, vinorelbine, paclitaxel, gefitinib, and pemetrexed were dissolved in DMSO and stored at −20 °C. Before treatment, all the stock solutions were freshly diluted in sterile water.
(§2) The compounds were administered 48 h after seeding. The treatment lasted 24 h.
(§3) The immunofluorescence assay for the quantification of MDR markers was optimized to distinguish cancer cells from stromal cells using a cytokeratin 8/18 (CK8/18) antibody cocktail. The cells were fixed with 4% paraformaldehyde for 20 min at RT and washed three times with PBS using the Wellwash Versa microplate washer (Thermo Fisher Scientific, Waltham, MA, USA). The cells were then blocked with 2% bovine serum albumin (BSA) in PBS for 1 h at RT. […] Co-immunostaining with antibodies against MDR markers was performed to detect the presence of ABCB1, ABCC1, and ABCG2 in both the cancer and stromal cells. […] The secondary antibodies were incubated with the cells at RT for 2 h in the dark. […] Finally, the cells were washed three times with PBS and stored at 4 °C in the dark before imaging.
(§4) The fluorescently labeled cells were imaged using the ImageXpress Pico Automated Cell Imaging System (Molecular Devices, San Jose, CA, USA) with a 4x objective after determining the appropriate exposure time for each illumination filter. Analysis of the obtained images was performed using CellReporterXpress software v. 2.8.2.669 (Molecular Devices). The cytotoxicity of the compounds was determined using the Cell Scoring Analysis Protocol. […] Expression of MDR markers was determined using the Multi-Wavelength Cell Scoring Analysis Protocol.

[2] = test system: MRC-5 cells; experiment: Cytotoxicity by immunofluorescence cell scoring (cell counts), normal fibroblasts; details: 24 h treatment
Description: as §1, §2, §3, §4

[3] = test system: NCI-H460 cells; experiment: Cytotoxicity by immunofluorescence cell scoring (cell counts), NSCLC cell line; details: 24 h treatment
Description: as §1, §2, §3, §4

[4] = test system: Non-cancer cells (CK8/18-) of patient-derived NSCLC cultures; experiment: Cytotoxicity in patient-derived NSCLC cultures, non-cancer cells; details: 7 days treatment
Description: (§5) Tissue samples were collected during surgery, and the NSCLC diagnosis, histological grade, stage, necrosis, and lymph node invasion status were determined by histopathological analysis. […] The surgical specimens were placed in a sterile tube containing antibiotic-antimycotic solution (Sigma-Aldrich Chemie GmbH, Taufkirchen, Germany) and immediately transported to the research laboratory for further processing.
(§6) Upon arrival, the tissue was manually chopped with a surgical blade in a Petri dish under sterile conditions. The samples were cut into 3–5 mm pieces and further dissociated using the Tumor Dissociation Kit (Miltenyi Biotec, Bergisch Gladbach, Germany). The Tumor Dissociation Kit was used to dissociate the cells from the tumor tissue according to the manufacturer’s instructions. The samples were incubated in a 37 °C orbital shaker (KS 4000 ic control, IKA, Königswinter, Germany) at 300 rpm for 90 min. After incubation, the dissociated tissue was placed in DMEM/Ham’s F12 (1:3 ratio) growth medium supplemented with 5% fetal bovine serum (Corning, NY, USA), antibiotic-antimycotic solution, 4 µg/mL hydrocortisone (Sigma-Aldrich Chemie GmbH, Taufkirchen, Germany), 1 µg/mL insulin (Sigma-Aldrich Chemie GmbH, Taufkirchen, Germany), 10 ng/mL epidermal growth factor (BioLegend, San Diego, CA, USA), and 24 µg/mL adenine (Sigma-Aldrich Chemie GmbH, Taufkirchen, Germany). The DMEM and Ham’s F12 growth media were purchased from Sigma-Aldrich Chemie GmbH (Taufkirchen, Germany).
(§7) The dissociated tissue was cultured in T-25 cell culture flasks until cell attachment was observed before the medium was replaced. If no cell attachment was achieved within 7 days, the sample was discarded. Successful patient-derived cultures were maintained at 37 °C in a humidified atmosphere with 5% CO2 and grown to confluence before undergoing further experiments. […] Partial trypsinization was performed by detaching the fibroblast-like cells with 1 mL of 0.05% trypsin for 1 min at 37 °C, followed by 2 min at room temperature (RT).
as §1
(§8) The primary cells were seeded in black, clear bottom 384-well cell culture microplates (Thermo Fisher Scientific, Waltham, MA, USA) in 50 µL of cell growth medium at a density of 1000 cells per well. The compounds were administered 72 h after seeding. The treatment lasted 7 days.
as §3

[5] = test system: ABCC1 expression in cancer cells (CK8/18+); experiment: Immunofluorescence assay of ABCC1 expression in patient-derived NSCLC cultures
Description: as §5, §6, §7, §1, §8, §3

[6] = test system: ABCB1 expression in cancer cells (CK8/18+); experiment: Immunofluorescence assay of ABCB1 expression in patient-derived NSCLC cultures; details: 7 days
Description: as §5, §6, §7, §1, §8, §3

[7] = test system: ABCG2 expression in cancer cells (CK8/18+); experiment: Immunofluorescence assay of ABCG2 expression in patient-derived NSCLC cultures; details: 7 days
Description: as §5, §6, §7, §1, §8, §3

[8] = test system: ABCB1 expression in NCI-H460 cells; experiment: Immunofluorescence assay of MDR marker ABCB1 expression; details: five concentrations, 24 h
Description: as §1, §2, §3, §4

[9] = test system: ABCB1 expression in NCI-H460/R cells; experiment: as above; details: five concentrations, 24 h
Description: as §1, §2, §3, §4

[10] = test system: ABCB1 expression in MRC-5 cells; experiment: as above; details: five concentrations, 24 h
Description: as §1, §2, §3, §4

[11] = test system: Cancer cells (CK8/18+) of patient-derived NSCLC cultures; experiment: Cytotoxicity in patient-derived NSCLC cultures, cancer cells; details: 7 days treatment
Description: as §5, §6, §7, §1, §8, §3

[12] = test system: ABCC1 expression in non-cancer cells (CK8/18-); experiment: Immunofluorescence assay of ABCC1 expression in patient-derived NSCLC cultures, non-cancer cells; details: Table S2
Description: as §5, §6, §7, §1, §8, §3

[13] = NCI-H460/R (co-culture with MRC-5)
[14] = MRC-5 (co-culture with NCI-H460)
[15] = MRC-5 (co-culture with NCI-H460/R)
[16] = NCI-H460 (co-culture with MRC-5)
[17] = culture TR58, non-cancer cells (CK8/18-)
[18] = culture TR64, non-cancer cells (CK8/18-)
[19] = culture TR65, non-cancer cells (CK8/18-)
[20] = culture TR84, non-cancer cells (CK8/18-)
[21] = culture TR87, non-cancer cells (CK8/18-)
[22] = culture TR58, cancer cells (CK8/18+)
[23] = culture TR64, cancer cells (CK8/18+)
[24] = culture TR65, cancer cells (CK8/18+)
[25] = culture TR84, cancer cells (CK8/18+)
[26] = culture TR87, cancer cells (CK8/18+)

`N.N.O=C([O-])C1(C(=O)[O-])CCC1.[Pt+2]` [Carboplatin] showed an IC50 [1, 13] of over 100 µM, an IC50 ([1]; NCI-H460/R monoculture) of over 100 µM and an IC50 [2, 14] of over 100 µM. The IC50 [2, 15] was over 100 µM, the IC50 ([2]; MRC-5 monoculture) was over 100 µM and the IC50 [3, 16] was over 100 µM. The IC50 ([3]; NCI-H460 monoculture) was over 100 µM, the IC50 [4, 17] was 27.3 µM and the IC50 [4, 18] was 12.8 µM. For the same compound, the IC50 [4, 19] was 2.16 µM, the IC50 [4, 20] was 1.28 µM and the IC50 [4, 21] was 22.9 µM. For the same compound, the ABCC1 expression ([5]; culture TR58, cancer cells (CK8/18+), 7 days) was “no change”, the ABCC1 expression ([5]; culture TR64, cancer cells (CK8/18+), 7 days) was “increase (An increase in ABCB1, ABCC1, or ABCG2 expression of at least 20% at a minimum of one concentration is shown in the table.)” and the ABCC1 expression ([5]; culture TR65, cancer cells (CK8/18+), 7 days) was “increase (An increase in ABCB1, ABCC1, or ABCG2 expression of at least 20% at a minimum of one concentration is shown in the table.)”. For the same compound, the ABCC1 expression ([5]; culture TR84, cancer cells (CK8/18+), 7 days) was “increase (An increase in ABCB1, ABCC1, or ABCG2 expression of at least 20% at a minimum of one concentration is shown in the table.)”, the ABCC1 expression ([5]; culture TR87, cancer cells (CK8/18+), 7 days) was “increase (An increase in ABCB1, ABCC1, or ABCG2 expression of at least 20% at a minimum of one concentration is shown in the table.)” and the ABCB1 Expression [6, 22] was “no change”. The ABCB1 Expression [6, 23] was “increase (An increase in ABCB1, ABCC1, or ABCG2 expression of at least 20% at a minimum of one concentration is shown in the table.)”, the ABCB1 Expression [6, 24] was “increase (An increase in ABCB1, ABCC1, or ABCG2 expression of at least 20% at a minimum of one concentration is shown in the table.)” and the ABCB1 Expression [6, 25] was “increase (An increase in ABCB1, ABCC1, or ABCG2 expression of at least 20% at a minimum of one concentration is shown in the table.)”. For the same compound, the ABCB1 Expression [6, 26] was “increase (An increase in ABCB1, ABCC1, or ABCG2 expression of at least 20% at a minimum of one concentration is shown in the table.)”, the ABCG2 expression [7, 22] was “increase (An increase in ABCB1, ABCC1, or ABCG2 expression of at least 20% at a minimum of one concentration is shown in the table.)” and the ABCG2 expression [7, 23] was “increase (An increase in ABCB1, ABCC1, or ABCG2 expression of at least 20% at a minimum of one concentration is shown in the table.)”. For the same compound, the ABCG2 expression [7, 24] was “increase (An increase in ABCB1, ABCC1, or ABCG2 expression of at least 20% at a minimum of one concentration is shown in the table.)”, the ABCG2 expression [7, 25] was “increase (An increase in ABCB1, ABCC1, or ABCG2 expression of at least 20% at a minimum of one concentration is shown in the table.)” and the ABCG2 expression [7, 26] was “increase (An increase in ABCB1, ABCC1, or ABCG2 expression of at least 20% at a minimum of one concentration is shown in the table.)”. The “ABCB1 Expression” value [8, 16] was “no change”, the “ABCB1 Expression” value ([8]; NCI-H460 monoculture) was “no change” and the “ABCB1 Expression” value [9, 13] was “no change”. For the same compound, the “ABCB1 Expression” value ([9]; NCI-H460/R monoculture) was “no change”, the “ABCB1 Expression” value [10, 14] was “no change” and the “ABCB1 Expression” value [10, 15] was “no change”. For the same compound, the “ABCB1 Expression” value ([10]; MRC-5 monoculture) was “no change”, the IC50 [11, 22] was 60.8 µM and the IC50 [11, 23] was 39 µM. The IC50 [11, 24] was 22.5 µM, the IC50 [11, 25] was 8.15 µM and the IC50 [11, 26] was 43.3 µM.

With `COc1cc2ncnc(Nc3ccc(F)c(Cl)c3)c2cc1OCCCN1CCOCC1` [gefitinib] the ABCC1 expression ([5]; culture TR58, cancer cells (CK8/18+), Table S2) was “no change”, the ABCC1 expression ([5]; culture TR64, cancer cells (CK8/18+), Table S2) was “no change” and the ABCC1 expression ([5]; culture TR65, cancer cells (CK8/18+), Table S2) was “increase (an increase in ABCC1 expression of at least 20% at a minimum of one concentration is shown in the Table.)”. For the same compound, the ABCC1 expression ([5]; culture TR84, cancer cells (CK8/18+), Table S2) was “increase (an increase in ABCC1 expression of at least 20% at a minimum of one concentration is shown in the Table.)”, the ABCC1 expression ([5]; culture TR87, cancer cells (CK8/18+), Table S2) was “no change” and the ABCC1 expression [12, 17] was “no change”. For the same compound, the ABCC1 expression [12, 18] was “no change”, the ABCC1 expression [12, 19] was “no change” and the ABCC1 expression [12, 20] was “no change”. The ABCC1 expression [12, 21] was “no change”.

From paper PMC10743086, “Immunofluorescence-Based Assay for High-Throughput Analysis of Multidrug Resistance Markers in Non-Small Cell Lung Carcinoma Patient-Derived Cells” (Diagnostics, 2023)
